Mass density and viscosity data for three compounds are collected here from the NIST ThermoML archive (doi:10.1021/je034203p).

The conditions of the data set: 298.15 K, 101.3 kPa, Liquid; for viscosity: Capillary tube (Ostwald / Ubbelohde) method.

Each structure is given as a SMILES string. ± gives the expanded uncertainty stated by the source.

Turning to `ClC(Cl)(Cl)Cl` [tetrachloromethane], the mass density worked out at 1586.1 ± 1.6 kg/m3 and the viscosity turned out to be 0.9096 ± 0.0095 mPa·s.

Turning to `Cc1ccccc1` [toluene], the mass density came to 860.5 ± 0.6 kg/m3 and the viscosity worked out at 0.5641 ± 0.0076 mPa·s.

For `ClC=C(Cl)Cl` [trichloroethene], the mass density was determined as 1455.7 ± 1.3 kg/m3 and the viscosity worked out at 0.551 ± 0.0075 mPa·s.

Usually mass density stands for mass per unit of volume. In general, viscosity refers to the internal friction of a fluid under shear.
